Measurements taken from US7994185B2, “Benzene sulfonamide thiazole and oxazole compounds” (Glaxo Smith Kline LLC, priority 2008, dated 2011).
Counter-ions that a name gives are not always drawn.

These molecules were tested against T1, BRAFV600E full-length (amino acids 2-766) (Homo sapiens, UniProt P15056, V600E) (assay: B-Raf Accelerated MEK ATPase assay (BRAMA)). Settings: B-Raf pIC50, Table 1b; later runs, average pIC50 for the one or more runs, categorized.
T1 construct: His6-tagged BRAFV600E full-length (amino acids 2-766); His6; made in house; host or cells: baculovirus expression system (insect cells)
T1 sequence (P15056 2-766 V600E): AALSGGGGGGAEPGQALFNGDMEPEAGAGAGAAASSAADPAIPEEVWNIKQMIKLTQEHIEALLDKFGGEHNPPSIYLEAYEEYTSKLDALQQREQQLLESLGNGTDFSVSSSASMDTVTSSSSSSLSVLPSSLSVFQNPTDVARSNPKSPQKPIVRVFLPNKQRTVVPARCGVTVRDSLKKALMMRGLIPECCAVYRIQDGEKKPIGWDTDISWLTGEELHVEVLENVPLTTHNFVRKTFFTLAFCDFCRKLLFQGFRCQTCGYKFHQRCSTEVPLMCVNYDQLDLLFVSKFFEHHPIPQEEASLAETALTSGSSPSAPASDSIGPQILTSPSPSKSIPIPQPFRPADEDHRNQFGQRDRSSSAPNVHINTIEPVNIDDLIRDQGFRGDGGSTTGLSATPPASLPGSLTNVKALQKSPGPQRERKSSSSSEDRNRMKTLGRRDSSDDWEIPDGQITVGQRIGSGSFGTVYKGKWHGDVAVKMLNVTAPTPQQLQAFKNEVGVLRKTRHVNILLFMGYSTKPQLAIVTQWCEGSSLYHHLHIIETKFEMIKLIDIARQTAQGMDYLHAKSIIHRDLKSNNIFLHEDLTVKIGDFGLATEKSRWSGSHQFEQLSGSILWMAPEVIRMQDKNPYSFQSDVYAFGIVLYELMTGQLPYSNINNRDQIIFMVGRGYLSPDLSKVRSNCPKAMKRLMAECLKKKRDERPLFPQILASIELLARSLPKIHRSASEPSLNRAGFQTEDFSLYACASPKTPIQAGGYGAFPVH
Assay type: biochemical
Procedure: Compounds of the present invention were tested for B-Raf protein serine kinase inhibitory activity in a B-Raf Accelerated MEK ATPase assay (BRAMA). […] The BRAMA assay is a high sensitivity assay which measures an intrinsic MEK-mediated ATP hydrolysis uncoupled from downstream ERK phosphorylation by coupling the formation of ADP to NADH oxidation through the enzymes pyruvate kinase and lactate dehydrogenase. When ADP production is initiated by addition of catalytic amounts of an activated Raf enzyme and non-phosphorylated MEK, one observes robust ADP production concomitant with Raf-mediated phosphorylation of MEK. The method is disclosed in: C. Rominger, M. Schaber, E. May. Assay for B-Raf Activity Based on Intrinsic MEK ATPase Activity.
`Cn1ccc(S(=O)(=O)Nc2cccc(-c3nc(C(C)(C)C)sc3-c3ccnc(N)n3)c2F)n1` [Example 288, N-{3-[5-(2-amino-4-pyrimidinyl)-2-(1,1-dimethylethyl)-1,3-thiazol-4-yl]-2-fluorophenyl}-1-methyl-1H-pyrazole-3-sulfonamide hydrochloride] was tested, and the IC50 was 31.6 to 1000 nM. With `Cn1ccc(S(=O)(=O)Nc2cccc(-c3nc(C4CCOCC4)sc3-c3ccnc(N)n3)c2F)n1` [Example 289, N-{3-[5-(2-amino-4-pyrimidinyl)-2-(tetrahydro-2H-pyran-4-yl)-1,3-thiazol-4-yl]-2-fluorophenyl}-1-methyl-1H-pyrazole-3-sulfonamide hydrochloride] the IC50 was 31.6 to 1000 nM. In the case of `C[C@@H](O)CNc1nccc(-c2sc(C(C)(C)C)nc2-c2cccc(NS(=O)(=O)c3c(F)cccc3F)c2F)n1` [Example 290, N-{3-[2-(1,1-dimethylethyl)-5-(2-{[(2R)-2-hydroxypropyl]amino}-4-pyrimidinyl)-1,3-thiazol-4-yl]-2-fluorophenyl}-2,6-difluorobenzenesulfonamide], the IC50 is reported as at most 3.16 nM. For `C[C@H](O)CNc1nccc(-c2sc(C(C)(C)C)nc2-c2cccc(NS(=O)(=O)c3c(F)cccc3F)c2F)n1` [Example 291, N-{3-[2-(1,1-dimethylethyl)-5-(2-{[(2S)-2-hydroxypropyl]amino}-4-pyrimidinyl)-1,3-thiazol-4-yl]-2-fluorophenyl}-2,6-difluorobenzenesulfonamide], the IC50 was at most 3.16 nM. `CC(C)(C)c1nc(-c2cccc(NS(=O)(=O)c3c(F)cccc3F)c2F)c(-c2ccnc(NCCC#N)n2)s1` [Example 292, N-{3-[5-{2-[(2-cyanoethyl)amino]-4-pyrimidinyl}-2-(1,1-dimethylethyl)-1,3-thiazol-4-yl]-2-fluorophenyl}-2,6-difluorobenzenesulfonamide] was tested, and the IC50 was at most 3.16 nM. `CC(C)(C)c1nc(-c2cccc(NS(=O)(=O)c3c(F)cccc3F)c2F)c(-c2ccnc(NCCO)n2)s1` [Example 293, N-[3-(2-(1,1-dimethylethyl)-5-{2-[(2-hydroxyethyl)amino]-4-pyrimidinyl}-1,3-thiazol-4-yl)-2-fluorophenyl]-2,6-difluorobenzenesulfonamide] gave an IC50 of at most 3.16 nM. Molecule `CC(C)(C)c1nc(-c2cccc(NS(=O)(=O)c3c(F)cccc3F)c2F)c(-c2ccnc(NC3CC3)n2)s1` [Example 294, N-{3-[5-[2-(cyclopropylamino)-4-pyrimidinyl]-2-(1,1-dimethylethyl)-1,3-thiazol-4-yl]-2-fluorophenyl}-2,6-difluorobenzenesulfonamide] has an IC50 of at most 3.16 nM. With `CC(C)(C)c1nc(-c2cccc(NS(=O)(=O)c3c(F)cccc3F)c2F)c(-c2ccnc(N)n2)o1` [Example 296, N-{3-[5-(2-amino-4-pyrimidinyl)-2-(1,1-dimethylethyl)-1,3-oxazol-4-yl]-2-fluorophenyl}-2,6-difluorobenzenesulfonamide] the IC50 was at most 3.16 nM. `CC(C)(C)c1nc(-c2cccc(NS(=O)(=O)c3cc(F)ccc3F)c2F)c(-c2ccnc(N)n2)o1` [Example 297, N-{3-[5-(2-amino-4-pyrimidinyl)-2-(1,1-dimethylethyl)-1,3-oxazol-4-yl]-2-fluorophenyl}-2,5-difluorobenzenesulfonamide] gave an IC50 of at most 3.16 nM. For `CC(C)(C)c1nc(-c2cccc(NS(=O)(=O)c3ccco3)c2F)c(-c2ccnc(N)n2)o1` [Example 298, N-{3-[5-(2-amino-4-pyrimidinyl)-2-(1,1-dimethylethyl)-1,3-oxazol-4-yl]-2-fluorophenyl}-2-furansulfonamide], the IC50 was at most 3.16 nM. `CC(C)(C)c1nc(-c2cccc(NS(=O)(=O)c3ccoc3)c2F)c(-c2ccnc(N)n2)o1` [Example 299, N-{3-[5-(2-amino-4-pyrimidinyl)-2-(1,1-dimethylethyl)-1,3-oxazol-4-yl]-2-fluorophenyl}-3-furansulfonamide] showed an IC50 of at most 3.16 nM. In the case of `O=S(=O)(Nc1cccc(-c2nc(C3CCOCC3)sc2-c2ccnc(NCCO)n2)c1F)c1ccoc1` [Example 300, N-{2-fluoro-3-[5-{2-[(2-hydroxyethyl)amino]-4-pyrimidinyl}-2-(tetrahydro-2H-pyran-4-yl)-1,3-thiazol-4-yl]phenyl}-3-furansulfonamide], the IC50 is reported as at most 3.16 nM. In the case of `CCN(CC)CCNc1nccc(-c2sc(C3CCOCC3)nc2-c2cccc(NS(=O)(=O)c3ccoc3)c2F)n1` [Example 301, N-{3-[5-(2-{[2-(diethylamino)ethyl]amino}-4-pyrimidinyl)-2-(tetrahydro-2H-pyran-4-yl)-1,3-thiazol-4-yl]-2-fluorophenyl}-3-furansulfonamide], the IC50 is reported as at most 3.16 nM. `C[C@@H](O)CNc1nccc(-c2sc(C3CCOCC3)nc2-c2cccc(NS(=O)(=O)c3ccoc3)c2F)n1` [Example 302, N-{2-fluoro-3-[5-(2-{[(2R)-2-hydroxypropyl]amino}-4-pyrimidinyl)-2-(tetrahydro-2H-pyran-4-yl)-1,3-thiazol-4-yl]phenyl}-3-furansulfonamide] gave an IC50 of at most 3.16 nM. Work on `C[C@H](O)CNc1nccc(-c2sc(C3CCOCC3)nc2-c2cccc(NS(=O)(=O)c3ccoc3)c2F)n1` [Example 303, N-{2-fluoro-3-[5-(2-{[(2S)-2-hydroxypropyl]amino}-4-pyrimidinyl)-2-(tetrahydro-2H-pyran-4-yl)-1,3-thiazol-4-yl]phenyl}-3-furansulfonamide] yielded an IC50 of at most 3.16 nM. `CC(C)CNc1nccc(-c2sc(C3CCOCC3)nc2-c2cccc(NS(=O)(=O)c3ccoc3)c2F)n1` [Example 304, N-{2-fluoro-3-[5-{2-[(2-methylpropyl)amino]-4-pyrimidinyl}-2-(tetrahydro-2H-pyran-4-yl)-1,3-thiazol-4-yl]phenyl}-3-furansulfonamide] was tested, and the IC50 was at most 3.16 nM. `O=S(=O)(Nc1cccc(-c2nc(C3CCOCC3)sc2-c2ccnc(NC3CCOCC3)n2)c1F)c1ccoc1` [Example 305, N-(2-fluoro-3-{2-(tetrahydro-2H-pyran-4-yl)-5-[2-(tetrahydro-2H-pyran-4-ylamino)-4-pyrimidinyl]-1,3-thiazol-4-yl}phenyl)-3-furansulfonamide] gave an IC50 of at most 3.16 nM. In the case of `O=S(=O)(Nc1cccc(-c2nc(C3CCOCC3)sc2-c2ccnc(NCCN3CCCC3)n2)c1F)c1ccoc1` [Example 306, N-{2-fluoro-3-[5-(2-{[2-(1-pyrrolidinyl)ethyl]amino}-4-pyrimidinyl)-2-(tetrahydro-2H-pyran-4-yl)-1,3-thiazol-4-yl]phenyl}-3-furansulfonamide], the IC50 is reported as at most 3.16 nM. In the case of `O=S(=O)(Nc1cccc(-c2nc(C3CCOCC3)sc2-c2ccnc(NCCN3CCOCC3)n2)c1F)c1ccoc1` [Example 307, N-{2-fluoro-3-[5-(2-{[2-(4-morpholinyl)ethyl]amino}-4-pyrimidinyl)-2-(tetrahydro-2H-pyran-4-yl)-1,3-thiazol-4-yl]phenyl}-3-furansulfonamide], the IC50 is reported as at most 3.16 nM. Molecule `CC(C)(C(N)=O)c1nc(-c2cccc(NS(=O)(=O)c3c(F)cccc3F)c2F)c(-c2ccnc(N)n2)s1` [Example 309, 2-[5-(2-Amino-4-pyrimidinyl)-4-(3-{[(2,6-difluorophenyl)sulfonyl]amino}-2-fluorophenyl)-1,3-thiazol-2-yl]-2-methylpropanamide] has an IC50 of at most 3.16 nM. With `Cc1nccc(-c2sc(C(C)(C)N)nc2-c2cccc(NS(=O)(=O)c3c(F)cccc3F)c2F)n1` [Example 310, N-{3-[2-(1-amino-1-methylethyl)-5-(2-methyl-4-pyrimidinyl)-1,3-thiazol-4-yl]-2-fluorophenyl}-2,6-difluorobenzenesulfonamide] the IC50 was 31.6 to 1000 nM. For `CC(C)(N)c1nc(-c2cccc(NS(=O)(=O)c3ccoc3)c2F)c(-c2ccnc(N)n2)s1` [Example 312, N-{3-[2-(1-amino-1-methylethyl)-5-(2-amino-4-pyrimidinyl)-1,3-thiazol-4-yl]-2-fluorophenyl}-3-furansulfonamide], the IC50 was at most 3.16 nM.

Same assay, conditions: Table 1b; later runs, average pIC50 for the one or more runs, categorized; read-out: B-Raf pIC50 (converted)
Work on `CC(=O)NCc1nccc(-c2sc(N3CCOCC3)nc2-c2cccc(NS(=O)(=O)c3cc(F)ccc3F)c2F)n1` [Example 276, N-({4-[4-(3-{[(2,5-difluorophenyl)sulfonyl]amino}-2-fluorophenyl)-2-(4-morpholinyl)-1,3-thiazol-5-yl]-2-pyrimidinyl}methyl)acetamide] yielded an IC50 of 3.16 to 31.6 nM. In the case of `C=Cc1nccc(-c2sc(N3CCOCC3)nc2-c2cccc(NS(=O)(=O)c3cc(F)ccc3F)c2F)n1` [Example 277, N-{3-[5-(2-ethenyl-4-pyrimidinyl)-2-(4-morpholinyl)-1,3-thiazol-4-yl]-2-fluorophenyl}-2,5-difluorobenzenesulfonamide], the IC50 is reported as 3.16 to 31.6 nM. `Nc1nccc(-c2sc(C3CCOCC3)nc2-c2cccc(NS(=O)(=O)c3ccccn3)c2F)n1` [Example 279, N-{3-[5-(2-amino-4-pyrimidinyl)-2-(tetrahydro-2H-pyran-4-yl)-1,3-thiazol-4-yl]-2-fluorophenyl}-2-pyridinesulfonamide] was tested, and the IC50 was 3.16 to 31.6 nM. `CC(C)(N)c1nc(-c2cccc(NS(=O)(=O)c3c(F)cccc3F)c2F)c(-c2ccnc(N)n2)s1` [Example 313, N-{3-[2-(1-amino-1-methylethyl)-5-(2-amino-4-pyrimidinyl)-1,3-thiazol-4-yl]-2-fluorophenyl}-2,6-difluorobenzenesulfonamide] was tested, and the IC50 was 3.16 to 31.6 nM. `Cc1nccc(-c2sc(C3CCOCC3)nc2-c2cccc(NS(=O)(=O)c3ccoc3)c2F)n1` [Example 314, N-{2-fluoro-3-[5-(2-methyl-4-pyrimidinyl)-2-(tetrahydro-2H-pyran-4-yl)-1,3-thiazol-4-yl]phenyl}-3-furansulfonamide] was tested, and the IC50 was 3.16 to 31.6 nM. `Cc1nccc(-c2sc(C3CCOCC3)nc2-c2cccc(NS(=O)(=O)c3c(F)cccc3F)c2F)n1` [Example 315, 2,6-difluoro-N-{2-fluoro-3-[5-(2-methyl-4-pyrimidinyl)-2-(tetrahydro-2H-pyran-4-yl)-1,3-thiazol-4-yl]phenyl}benzenesulfonamide] showed an IC50 of 3.16 to 31.6 nM.
